The record followed here is patent publication US7622481B2, “Antibacterial compounds” (priority 2003, dated 2009).

Counter-ions that a name gives are not always drawn. Like-named read-outs stand apart in the source and are kept apart here.

The test is described as follows: MIC of test compounds against various organisms. The test is classed as cell-based. The protocol:
The MIC (μg/ml) of test compounds against various organisms was determined including:
S. epidermidis CL7, S. aureus WCUH29, S. pneumoniae 1629, S. pyogenes CN10, H. influenzae ATCC 49247, E. faecalis 2, M. catarrhalis Ravasio, E. coli 7623.

Setting [1] is: versus all these organisms (panel of 8 strains), read-out: MIC.
[2] abbreviates: versus at least one of these organisms (panel of 8 strains), read-out: MIC.

In general, MIC refers to the lowest concentration found to suppress growth. For the compound `O=C1CSc2ccc(CN[C@H]3CC[C@H](C(=O)Nc4ccnc5ccccc45)CC3)nc2N1` [Example 3, trans-4-[(3-Oxo-3,4-dihydro-2H-pyrido[3,2-b][1,4]thiazin-6-ylmethyl)-amino]-cyclohexanecarboxylic acid quinolin-4-ylamide dihydrochloride], the MIC was at most 8 µg/mL.

Regarding `N#Cc1ccc2cccc(NC(=O)[C@H]3CC[C@H](NCc4ccc5c(n4)NC(=O)CO5)[C@H](O)C3)c2n1` [Example 13, (1S,3R,4S)-3-Hydroxy-4-[(3-oxo-3,4-dihydro-2H-pyrido[3,2-b][1,4]oxazin-6-ylmethyl)-amino]-cyclohexanecarboxylic acid (2-cyano-quinolin-8-yl)-amide hydrochloride], the MIC under setting [1] was at most 2 µg/mL.

As to `Cc1ccc2cccc(NC(=O)[C@]3(O)CC[C@@H](NCc4cc5c(cn4)OCC(=O)N5)CC3)c2n1` [Example 22, 1-Hydroxy-t-4-[(2-oxo-2,3-dihydro-1H-pyrido[3,4-b][1,4]oxazin-7-ylmethyl)-amino]-r-cyclohexanecarboxylic acid (2-methyl-quinolin-8-yl)-amide dihydrochloride], the MIC under setting [1] is at most 2 µg/mL.

As for `N#Cc1ccc2cccc(NC(=O)[C@H]3CC[C@H](NCc4ccc5c(n4)NC(=O)CS5)[C@H](O)C3)c2n1` [Example 12, (1 S,3R,4S)-3-Hydroxy-4-[(3-oxo-3,4-dihydro-2H-pyrido[3,2-b][1,4]thiazin-6-ylmethyl)-amino]-cyclohexanecarboxylic acid (2-cyano-quinolin-8-yl)-amide hydrochloride], the MIC under setting [1] was at most 2 µg/mL.

As for `COc1cnc2cccc(NC(=O)[C@]3(O)CC[C@@H](NCc4ccc5c(n4)NC(=O)CS5)CC3)c2n1` [Example 34, 1-Hydroxy-t-4-[(3-oxo-3,4-dihydro-2Hpyrido[3,2-b][1,4]thiazin-6-ylmethyl)-amino]-r-cyclohexanecarboxylic acid (3-methoxy-quinoxalin-5-yl)-amide hydrochloride], the MIC under setting [1] is at most 2 µg/mL.

`Cc1ccc2cccc(NC(=O)[C@]3(O)CC[C@@H](NCc4ccc5c(n4)NC(=O)CO5)CC3)c2n1` [Example 18, 1-Hydroxy-t-4-[(3-oxo-3,4-dihydro-2H-pyrido[3,2-b][1,4]oxazin-6-ylmethyl)-amino]-r-cyclohexanecarboxylic acid (2-methyl-quinolin-8-yl)-amide dihydrochloride]: the MIC under setting [1] is at most 2 µg/mL.

As to `N#Cc1ccc2cccc(NC(=O)[C@@H]3CC[C@@H](NCc4ccc5c(n4)NC(=O)CS5)[C@@H](O)C3)c2n1` [Example 16, (1R,3S,4R)-3-Hydroxy-4-[(3-oxo-3,4-dihydro-2H-pyrido[3,2-b][1,4]thiazin-6-ylmethyl)-amino]-cyclohexanecarboxylic acid (2-cyano-quinolin-8-yl)-amide hydrochloride], the MIC under setting [1] is at most 2 µg/mL.

Regarding `O=C1CSc2ccc(CN[C@H]3CC[C@](O)(C(=O)Nc4ccnc5ccsc45)CC3)nc2N1` [Example 1, 1 -Hydroxy-t-4-[(3-oxo-3,4-dihydro-2H-pyrido[3,2-b][1 ,4]thiazin-6-ylmethyl) -amino]-r-cyclohexanecarboxylic acid thieno[3,2-b]pyridin-7-ylamide dihydrochioride], under setting [1], the MIC is at most 8 µg/mL.

In the case of `O=C1CSc2ccc(CN[C@H]3CC[C@H](C(=O)Nc4cccc5cnccc45)CC3)cc2N1` [Example 4, trans-4-[(3-Oxo-3,4-dihydro-2H-benzo[1,4]thiazin-6-ylmethyl)-amino]-cyclohexanecarboxylic acid isoquinolin-5-ylamide], under setting [2], the minimal inhibitory concentration (MIC) is at most 16 µg/mL.

As for `O=C1COc2ccc(CN[C@H]3CC[C@](O)(C(=O)Nc4ccnc5ccncc45)CC3)nc2N1` [Example 29, 1-Hydroxy-t-4-[(3-oxo-3,4-dihydro-2H-pyrido[3,2-b][1,4]oxazin-6-ylmethyl)-amino]-r-cyclohexanecarboxylic acid [1,6]naphthyridin-4-ylamide], the MIC (versus some of these organisms (panel of 8 strains), read-out: MIC) was at most 2 µg/mL.

As to `N#Cc1ccc2cccc(NC(=O)[C@@H]3CC[C@@H](NCc4ccc5c(n4)NC(=O)CS5)[C@H](O)C3)c2n1` [Example 14, (1R,3R,4R)-3-Hydroxy-4-[(3-oxo-3,4-dihydro-2H-pyrido[3,2-b][1,4]thiazin-6-ylmethyl)-amino]-cyclohexanecarboxylic acid (2-cyano-quinolin-8-yl)-amide hydrochloride], the MIC under setting [1] is at most 2 µg/mL.

For the compound `COc1nccc2cccc(NC(=O)[C@]3(O)CC[C@@H](NCc4ccc5c(n4)NC(=O)CS5)CC3)c12` [Example 27, 1-Hydroxy-t-4-[(3-oxo-3,4-dihydro-2H-pyrido[3,2-b][1,4]thiazin-6-ylmethyl)-amino]-r-cyclohexanecarboxylic acid (1-methoxy-isoquinolin-8-yl)-amide hydrochloride], the MIC under setting [1] is at most 8 µg/mL.

In the case of `N#Cc1ccc2cccc(NC(=O)[C@]3(O)CC[C@@H](NCc4ccc5c(n4)NC(=O)CO5)CC3)c2n1` [Example 11, 1-Hydroxy-t-4-[(3-oxo-3,4-dihydro-2H-pyrido[3,2-b][1,4]oxazin-6-ylmethyl)-amino]-r-cyclohexanecarboxylic acid (2-cyano-quinolin-8-yl)-amide hydrochloride], the MIC under setting [1] is at most 2 µg/mL.

As for `Cc1cnc2c(NC(=O)[C@]3(O)CC[C@@H](NCc4ccc5c(n4)NC(=O)CS5)CC3)cccc2n1` [Example 30, 1-Hydroxy-t-4-[(3-oxo-3,4-dihydro-2H-pyrido[3,2-b][1,4]thiazin-6-ylmethyl)-amino]-r-cyclohexanecarboxylic acid (2-methyl-quinoxalin-5-yl)-amide dihydrochloride], under setting [2], the MIC is at most 16 µg/mL.

Take `COc1cccc2nccc(NC(=O)[C@]3(O)CC[C@@H](NCc4ccc5c(n4)NC(=O)CS5)CC3)c12` [Example 28, 1-Hydroxy-t-4-[(3-oxo-3,4-dihydro-2H-pyrido[3,2-b][1,4]thiazin-6-ylmethyl)-amino]-r-cyclohexanecarboxylic acid (5-methoxy-quinolin-4-yl)-amide dihydrochloride]: the MIC under setting [1] is at most 8 µg/mL.

As for `COc1ccc2nccc(NC(=O)[C@@H]3CC[C@@H](NCc4ccc5c(n4)NC(=O)CO5)[C@@H](F)C3)c2n1` [Example 31, (1R,3S,4R)-3-Fluoro-4-[(3-oxo-3,4-dihydro-2H-pyrido[3,2-b][1,4]oxazin-6-ylmethyl)-amino]-cyclohexanecarboxylic acid (6-methoxy-[1,5]naphthyridin-4-yl)-amide dihydrochloride], the MIC was at most 2 µg/mL.

In the case of `Cc1ccc2cccc(NC(=O)[C@]3(O)CC[C@@H](NCc4ccc5c(n4)NC(=O)CS5)CC3)c2n1` [Example 19, 1-Hydroxy-t-4-[(3-oxo-3,4-dihydro-2H-pyrido[3,2-b][1,4]thiazin-6-ylmethyl)-amino]-r-cyclohexanecarboxylic acid (2-methyl-quinolin-8-yl)-amide dihydrochloride], the MIC under setting [1] was at most 2 µg/mL.

In the case of `N#Cc1ccc2cccc(NC(=O)[C@]3(O)CC[C@@H](NCc4ccc5c(n4)NC(=O)CS5)CC3)c2n1` [Example 10, 1-Hydroxy-t-4-[(3-oxo-3,4-dihydro-2H-pyrido[3,2-b][1,4]thiazin-6-ylmethyl)-amino]-r-cyclohexanecarboxylic acid (2-cyano-quinolin-8-yl)-amide dihydrochloride], under setting [1], the MIC is at most 2 µg/mL.

Regarding `COc1ccc2cccc(NC(=O)[C@]3(O)CC[C@@H](NCc4ccc5c(n4)NC(=O)CO5)CC3)c2n1` [Example 17, 1-Hydroxy-t-4-[(3-oxo-3,4-dihydro-2H-pyrido[3,2-b][1,4]oxazin-6 ylmethyl)-amino]-r-cyclohexanecarboxylic acid (2-methoxy-quinolin-8-yl)-amide], the MIC under setting [1] was at most 2 µg/mL.

Take `Cn1ccc2cccc(NC(=O)[C@]3(O)CC[C@@H](NCc4ccc5c(n4)NC(=O)CS5)CC3)c2c1=O` [Example 26, 1-Hydroxy-t-4-[(3-oxo-3,4-dihydro-2H-pyrido[3,2-b][1,4]thiazin-6-ylmethyl)-amino]-r-cyclohexanecarboxylic acid (2-methyl-1-oxo-1,2-dihydro-isoquinolin-8-yl)-amide hydrochloride]: under setting [1], the MIC was at most 2 µg/mL.

In the case of `N#Cc1ccc2cccc(NC(=O)[C@@H]3CC[C@@H](NCc4ccc5c(n4)NC(=O)CO5)[C@@H](O)C3)c2n1` [Example 9, (1R,3S,4R)-3-Hydroxy-4-[(3-oxo-3,4-dihydro-2H-pyrido[3,2-b][1,4]oxazin-6-ylmethyl)-amino]-cyclohexanecarboxylic acid (2-cyano-quinolin-8-yl)-amide hydrochloride], the MIC under setting [1] was at most 2 µg/mL.

For the compound `COc1ccc2cccc(NC(=O)[C@]3(O)CC[C@@H](NCc4ccc5c(n4)NCCS5)CC3)c2n1` [Example 6, 4-[(3,4-Dihydro-2H-pyrido[3,2-b][1,4]thiazin-6-ylmethyl)-amino]-1-hydroxy-cyclohexanecarboxylic acid (2-methoxy-quinolin-8-yl)-amide], under setting [1], the MIC is at most 8 µg/mL.

Turning to `O=C1CSc2ccc(CN[C@H]3CC[C@](O)(C(=O)Nc4ccnc5c4OCCO5)CC3)nc2N1` [Example 2, 1-Hydroxy-t-4-[(3-oxo-3,4-dihydro-2H-pyrido[3,2-b][1,4]thiazin-6-ylmethyl)-amino]-r-cyclohexanecarboxylic acid (2,3-dibydro-[1,4]dioxino[2,3-b]pyridin-8-yl)-amide dihydrochloride], the MIC under setting [2] is at most 16 µg/mL.

Turning to `Cc1cnc2cccc(NC(=O)[C@]3(O)CC[C@@H](NCc4ccc5c(n4)NC(=O)CS5)CC3)c2n1` [Example 25, 1-Hydroxy-t-4-[(3-oxo-3,4-dihydro-2H-pyrido[3,2-b][1,4]thiazin-6-ylmethyl)-amino]-r-cyclohexanecarboxylic acid (3-methyl-quinoxalin-5-yl)-amide dihydrochloride], the MIC under setting [1] is at most 2 µg/mL.

On to `Cc1ccc2cccc(NC(=O)[C@H]3CC[C@H](NCc4cc5c(cn4)OCCO5)CC3)c2n1` [Example 36, t-4-[(2,3-Dihydro-[1,4]dioxino[2,3-c]pyridin-7-ylmethyl)-amino]-cyclohexanecarboxylic acid (2-methyl-quinolin-8-yl)-amide dihydrochloride], for which, under setting [1], the minimal inhibitory concentration (MIC) was at most 8 µg/mL.
